Laboratory results reported in article PMC9225722, “Synthesis and biological evaluation of thieno[3,2-c]pyrazol-3-amine derivatives as potent glycogen synthase kinase 3β inhibitors for Alzheimer’s disease” (Journal of Enzyme Inhibition and Medicinal Chemistry, 2022).
“Also recorded” adds a separate entry of the source.

What was measured:
GSK-3β = GSK-3β (Homo sapiens, UniProt P49841); test: GSK-3β kinase assay (calliper mobility shift assay); type: biochemical; conditions: mean ± SD from two separate experiments; calliper mobility shift assay
Chain of GSK-3β (P49841 whole entry): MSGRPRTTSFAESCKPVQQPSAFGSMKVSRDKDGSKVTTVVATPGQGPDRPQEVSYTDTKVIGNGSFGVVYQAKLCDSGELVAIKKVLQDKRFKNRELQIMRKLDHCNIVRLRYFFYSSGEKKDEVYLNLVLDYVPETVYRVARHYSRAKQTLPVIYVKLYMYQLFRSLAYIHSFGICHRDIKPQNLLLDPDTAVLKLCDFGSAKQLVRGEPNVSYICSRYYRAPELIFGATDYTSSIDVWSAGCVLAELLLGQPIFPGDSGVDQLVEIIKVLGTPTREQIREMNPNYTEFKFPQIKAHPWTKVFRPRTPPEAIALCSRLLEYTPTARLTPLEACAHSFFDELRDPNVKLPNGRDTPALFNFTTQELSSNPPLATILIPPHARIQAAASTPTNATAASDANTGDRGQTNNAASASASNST

[1] = system: panel of 21 diverse kinases; test: Kinase selectivity screen, whole panel; type: biochemical, human; conditions: 1.0 μM compound, Km ATP, 21 kinases
Source text: The potent GSK-3β inhibitor 16b was next subjected to kinase selectivity assay. A panel of kinases which were structurally related to GSK-3β was used for the GSK-3β selectivity studies[26]^,[37]^,[38]. […] GSK-3α and GSK-3β are known to share a 98% sequence homology at the catalytic site[42]. CDK5 and GSK-3 belong to the CMGC protein kinase family, which shared highly homology with each other[43]^,[44]. CDK5 is known abnormally activated and also responsible for the tau hyperphosphorylation in AD[45]. It was known that Aβ could increase CK2 activity, which in turn accelerated the tau phosphorylation in AD[46]. Therefore, the inhibition of CDK5 and CK2 by 16b may be beneficial for its anti-AD activities.
Figure 3. Effects of compound 16b on the activities of 21 protein kinases in vitro. Protein kinases were of human origin and assayed in the presence of 1.0 μM compound 16b or vehicle (DMSO). The enzymatic activity was measured in the presence of Km ATP. Kinase activities were given as the mean of twice determinations. […]
Compound 16b was evaluated for kinase selectivity at Eurofins Cerep SA (Celle-L’Evescault, France) in enzymatic radioactive assays in a panel of 21 different kinases (including GSK-3β) from diverse families. […] The enzymatic activity was measured in the presence of Km ATP.

SH-SY5Y cells = test: Neuronal neurite outgrowth assay; type: cell-based, human; conditions: 10 μM, 72 h, compared with RA (10 μM)
Source text: Differentiated SH-SY5Y cells express neurogenesis-related markers, including growth-associated protein 43 (GAP43), the N-myc gene as well as neuronal polarity marker microtubule-associated protein 2 (MAP-2). GAP43 is an intrinsic determinant of neuronal development and plasticity which regulates axon growth and regeneration[68]^,[69]. N-myc is indispensable to normal neurogenesis in the expansion of progenitor cell populations. MAP-2 regulates neuronal development, structural stability and synaptic plasticity through the formation of axonal and dendritic processes[71]^,[72]. Inhibition of GSK-3β could induce neurogenesis and promote the expressions of the neurogenesis-related markers. Firstly, we used SH-SY5Y cells to study the effect of 16b on neurite outgrowth, using retinoic acid (RA) as a positive control. After incubating with 16b (10 μM) or RA (10 μM) for 72 h, the morphology of differentiated neuronal neurite outgrowth were obtained.
Figure 8. (A) Effect of 16b (10 μM) on neurite outgrowth (72 h). Red arrows indicated cells bearing neurites. […]
SH-SY5Y cells (5 × 10^3) were planted in 96-well plates and cultivated at 37 °C for 24 h. […] After the SH-SY5Y cells were cultivated for 24 h, total RNA was extracted, and quantitative RT-PCR was performed according to the previously reported method.

CC(C)C(=O)Nc1n[nH]c2cc(-c3cccnc3)sc12 [Compound 16b, N-(5-(pyridin-3-yl)-1H-thieno[3,2-c]pyrazol-3-yl)isobutyramide]
IC50 (GSK-3β): 3.1 ± 0.1 nM
kinase selectivity over most of the kinases of the panel [1]: good selectivity; also recorded: accepted kinase selectivity
neurite outgrowth of SH-SY5Y cells (SH-SY5Y cells): substantial ability in inducing SH-SY5Y cells neurite outgrowth
